{"source": "patent US5635349A", "about": "“High-throughput screening assay for inhibitors of nucleic acid polymerases” (Tularik, Inc., priority 1994, dated 1997)", "key": {"[1]": {"tested_on": "Eukaryotic (Yeast) RNA Polymerase II", "assay": "Eukaryotic (Yeast) RNA Polymerase II Assay (Promoter Nonspecific)", "assay_type": "biochemical, Candida", "conditions": "positive control at 20 ug/ml, column 12 rows A and B, plates #1 and #2", "protocol": "Eukaryotic (Yeast) RNA Polymerase II Assay (Promoter Nonspecific)\n1. Make 1.45× assay buffer from 5× stock (1× final with extract and enzyme added). Add fresh components (PEG, DTT, and MnCl2) to final 1× solution: 50 mM Tris-Acetate at pH 7.8, 50 mM KAc, 0.4 mM ATP, 0.2 mM GTP and UTP, 1 μM CTP, 20 μg BSA/80 μl, PEG 3%, single stranded DNA, 0.2 μg/80 μl, 2 mM DTT, and 2 mM MnCl2. Filtrate using 0.45 μm filter.\n2. Make 1× storage buffer (50 mM Tris-Ac, 100 mM KAc, 0.25 mg/ml BSA, 5 mM DTT). Add enzyme and [α-^33 P]-CTP to a concentration such that there are about 80-100 CK cpm of hot CTP in 15 μl, and enough enzyme (from dose response) to get 3000 cpm incorporated.\n(§1) 3. Add 60 μl of assay buffer to filterplate.\n(§2) 4. Add 8 μl of extract or compounds to filterplate.\n5. Add 15 μl hot CTP+enzyme to filterplate. Shake 10 min.\n(§3) 6. Incubate 45 min at 34° C.\n7. Add 100 μl of DEAE beads (20% slurry in 60% methanol, 20 mM EDTA, 0.02% NP-40). Incubate 1 hr.\n8. Wash 5 times (300 μl each) with 0.5M dibasic NaPi, 0.5% NP-40, 10% ethanol.\n9. Seal bottom, add 160 μl cocktail, seal top, and count.\nColumn 1, rows A-D of both plate #1 and #2 are background counts. Column 1, rows E-H of both plate #1 and #2 are counts obtained without the additon of label. Column 12, rows A and B of both plate #1 and #2 are positive controls using the eukaryotic RNA polymerase II inhibitor α-amanitinat 20 ug/ml. […]"}, "[2]": {"biological_target": "E. coli. RNA polymerase holoenzyme supplemented with additional recombinant sigma 70 (Escherichia coli, UniProt P00579+P0A7Z4+P0A8T7+P0A8V2)", "sequence (P0A7Z4 whole entry)": "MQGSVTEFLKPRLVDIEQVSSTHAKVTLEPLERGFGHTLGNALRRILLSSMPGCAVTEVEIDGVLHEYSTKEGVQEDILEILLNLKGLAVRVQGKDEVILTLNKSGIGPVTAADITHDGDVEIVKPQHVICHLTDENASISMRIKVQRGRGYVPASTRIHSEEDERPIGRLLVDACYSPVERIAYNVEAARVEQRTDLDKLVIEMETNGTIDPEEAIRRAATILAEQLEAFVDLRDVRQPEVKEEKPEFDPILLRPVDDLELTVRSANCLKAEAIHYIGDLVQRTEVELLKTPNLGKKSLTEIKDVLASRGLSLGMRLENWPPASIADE", "sequence (P0A8V2 whole entry)": "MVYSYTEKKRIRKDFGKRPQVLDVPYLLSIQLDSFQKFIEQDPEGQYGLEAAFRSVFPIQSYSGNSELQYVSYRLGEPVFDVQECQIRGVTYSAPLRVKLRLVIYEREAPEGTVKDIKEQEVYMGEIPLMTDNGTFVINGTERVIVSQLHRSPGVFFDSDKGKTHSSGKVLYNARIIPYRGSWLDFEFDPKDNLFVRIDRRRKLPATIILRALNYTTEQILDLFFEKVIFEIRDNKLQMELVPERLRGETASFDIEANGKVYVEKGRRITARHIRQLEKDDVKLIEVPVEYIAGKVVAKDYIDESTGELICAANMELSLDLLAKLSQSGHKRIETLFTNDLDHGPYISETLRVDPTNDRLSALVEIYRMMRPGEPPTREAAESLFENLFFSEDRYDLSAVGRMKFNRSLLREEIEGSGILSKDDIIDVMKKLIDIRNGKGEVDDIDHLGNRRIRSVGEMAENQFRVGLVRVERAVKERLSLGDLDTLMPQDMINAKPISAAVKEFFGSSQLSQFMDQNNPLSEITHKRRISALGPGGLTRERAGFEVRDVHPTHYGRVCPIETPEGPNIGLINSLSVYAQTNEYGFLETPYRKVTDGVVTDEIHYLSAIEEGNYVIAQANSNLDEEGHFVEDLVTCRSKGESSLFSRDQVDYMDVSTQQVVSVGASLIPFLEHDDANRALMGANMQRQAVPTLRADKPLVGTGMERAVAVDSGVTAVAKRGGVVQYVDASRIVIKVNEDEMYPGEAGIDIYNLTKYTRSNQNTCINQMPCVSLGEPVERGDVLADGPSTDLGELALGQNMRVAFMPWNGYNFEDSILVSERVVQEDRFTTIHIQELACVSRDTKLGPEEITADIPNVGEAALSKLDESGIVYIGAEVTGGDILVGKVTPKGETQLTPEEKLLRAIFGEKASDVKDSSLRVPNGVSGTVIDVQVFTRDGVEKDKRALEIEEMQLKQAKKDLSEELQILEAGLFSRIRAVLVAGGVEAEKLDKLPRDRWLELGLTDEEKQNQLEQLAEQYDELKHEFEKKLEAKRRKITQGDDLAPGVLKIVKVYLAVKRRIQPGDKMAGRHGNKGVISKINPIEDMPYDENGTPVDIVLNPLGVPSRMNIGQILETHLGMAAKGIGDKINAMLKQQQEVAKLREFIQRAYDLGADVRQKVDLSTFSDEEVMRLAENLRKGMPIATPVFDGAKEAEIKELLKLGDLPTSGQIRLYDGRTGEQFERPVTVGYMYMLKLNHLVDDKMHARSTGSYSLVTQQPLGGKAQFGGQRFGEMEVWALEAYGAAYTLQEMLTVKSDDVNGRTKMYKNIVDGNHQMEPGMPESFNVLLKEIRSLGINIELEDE", "sequence (P0A8T7 whole entry)": "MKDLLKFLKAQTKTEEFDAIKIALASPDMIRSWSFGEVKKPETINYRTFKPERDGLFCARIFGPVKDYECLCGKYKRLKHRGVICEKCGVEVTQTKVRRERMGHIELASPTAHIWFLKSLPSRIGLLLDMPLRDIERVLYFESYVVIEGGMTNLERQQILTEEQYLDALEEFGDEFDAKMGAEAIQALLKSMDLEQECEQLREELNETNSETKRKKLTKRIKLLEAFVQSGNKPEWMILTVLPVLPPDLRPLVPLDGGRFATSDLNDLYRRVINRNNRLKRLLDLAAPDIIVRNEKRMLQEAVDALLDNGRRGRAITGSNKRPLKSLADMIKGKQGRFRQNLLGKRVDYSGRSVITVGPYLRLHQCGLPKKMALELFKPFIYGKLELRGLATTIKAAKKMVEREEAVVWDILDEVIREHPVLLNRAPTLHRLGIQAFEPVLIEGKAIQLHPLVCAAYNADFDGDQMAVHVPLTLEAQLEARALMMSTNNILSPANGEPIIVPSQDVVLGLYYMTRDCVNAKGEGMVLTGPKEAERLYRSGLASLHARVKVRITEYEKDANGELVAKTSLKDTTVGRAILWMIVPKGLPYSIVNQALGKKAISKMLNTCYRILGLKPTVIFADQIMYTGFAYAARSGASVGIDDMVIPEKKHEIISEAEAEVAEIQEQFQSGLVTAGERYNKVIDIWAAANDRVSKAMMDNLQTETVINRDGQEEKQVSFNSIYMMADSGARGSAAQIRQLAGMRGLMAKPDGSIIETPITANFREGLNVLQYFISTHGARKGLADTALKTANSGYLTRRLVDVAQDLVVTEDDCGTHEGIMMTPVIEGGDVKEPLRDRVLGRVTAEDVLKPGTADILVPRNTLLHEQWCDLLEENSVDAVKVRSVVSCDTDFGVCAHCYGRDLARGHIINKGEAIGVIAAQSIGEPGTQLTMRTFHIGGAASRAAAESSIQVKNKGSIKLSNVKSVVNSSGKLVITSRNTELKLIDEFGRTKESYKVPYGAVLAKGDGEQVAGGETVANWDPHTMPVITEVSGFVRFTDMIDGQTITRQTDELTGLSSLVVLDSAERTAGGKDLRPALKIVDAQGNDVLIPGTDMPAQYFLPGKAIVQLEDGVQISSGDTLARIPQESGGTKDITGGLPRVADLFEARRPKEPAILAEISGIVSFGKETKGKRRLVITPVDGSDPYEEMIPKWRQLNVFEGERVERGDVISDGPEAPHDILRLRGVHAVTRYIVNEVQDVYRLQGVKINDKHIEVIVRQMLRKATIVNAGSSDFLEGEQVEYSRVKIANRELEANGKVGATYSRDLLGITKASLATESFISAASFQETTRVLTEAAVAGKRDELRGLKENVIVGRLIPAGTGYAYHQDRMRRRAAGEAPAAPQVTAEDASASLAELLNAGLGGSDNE", "sequence (P00579 whole entry)": "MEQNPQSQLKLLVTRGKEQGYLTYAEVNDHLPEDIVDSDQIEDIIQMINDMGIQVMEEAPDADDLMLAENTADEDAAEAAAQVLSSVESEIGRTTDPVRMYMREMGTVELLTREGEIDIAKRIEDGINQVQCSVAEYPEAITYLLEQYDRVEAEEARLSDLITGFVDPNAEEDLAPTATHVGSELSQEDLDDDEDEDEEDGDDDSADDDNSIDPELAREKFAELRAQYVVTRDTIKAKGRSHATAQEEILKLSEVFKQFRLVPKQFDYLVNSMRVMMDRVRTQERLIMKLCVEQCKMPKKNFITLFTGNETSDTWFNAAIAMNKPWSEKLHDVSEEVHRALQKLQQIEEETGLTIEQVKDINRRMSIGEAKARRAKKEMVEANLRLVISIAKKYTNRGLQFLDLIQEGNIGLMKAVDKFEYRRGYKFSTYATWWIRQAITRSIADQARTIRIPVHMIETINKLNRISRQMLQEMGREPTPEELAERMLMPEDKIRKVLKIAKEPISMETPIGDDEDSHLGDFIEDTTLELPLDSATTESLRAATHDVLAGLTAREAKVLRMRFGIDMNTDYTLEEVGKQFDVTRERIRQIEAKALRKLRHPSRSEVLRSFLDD", "assay": "Prokaryotic (E. coli) RNA Polymerase Assay (Promoter Specific)", "assay_type": "biochemical", "conditions": "positive control at 20 ug/ml, column 12 rows A and B, plates #1 and #2", "source_text": "Prokaryotic (E. coli) RNA Polymerase Assay (Promoter Specific)\nIn this example, the targeted polymerase is the E. coli. RNA polymerase holoenzyme (α2 ββ'[…] ) supplemented with additional recombinant sigma 70 to increase the percentage of promoter specific transcription over non-specific elongation. GTP is omitted from the assay mixture. The substrate is a pBR-based plasmid with sigma 70, -10+-30 recognition sequences and a 260 nt G-free cassette\n1. Make 1.45× assay buffer from 5× stock (1× final with extract and enzyme added). Add fresh components (polyethyleneglycol (PEG), dithiothreitol (DTT), and DNA) to final 1x solution; 50 mM Tris-Ac at pH 7.8, 100 μm ATP, 100 μM UTP, 1 μM CTP, 20 μg Bovine Serum Albumin/80 μl, PEG 3%, plasmid DNA template (described above), 0.3-0.5 μg/80 μl (from dose response), 2 mM DTT. Filter using 0.45 μm filter.\n2. Make 1× storage buffer (50 mM Tris-Ac, 100 mM KAc, 100 mM MgCl2, 0.25 mg/ml BSA, 5 mM DTT). Add enzyme and [[…]]-CTP to a concentration such that there are about 80-100K cpm CTP in 15 μl, and enough enzyme (from dose response) to get 3000 cpm incorporated.\nas §1, §2\n5. Add 15 μl of ^33 P CTP+enzyme to filterplate. Shake 10 min.\nas §3\n7. Add 100 μl of DEAE Sephacell (Pharmacia) beads (20% slurry in 60% methanol, 20 mM EDTA, 0.02% NP-40). […]"}}, "note": "Several values for one entry are separate records, joined by “and”; a condition that tells them apart may be missing. Identical values can stand only once.", "data": [{"smiles": "CCC(C)C1NC(=O)CNC(=O)C2Cc3c([nH]c4cc(O)ccc34)[S+]([O-])CC(NC(=O)CNC1=O)C(=O)NC(CC(N)=O)C(=O)N1CC(O)CC1C(=O)NC(C(C)C(O)CO)C(=O)N2", "note": "(stereo not drawn) [α-amanitin]", "values": [{"measurement": "CPM A (label incorporated into transcript)", "setting": "[1]", "result": "6477.00 CPM and 6882.00 CPM and 6999.00 CPM and 7028.50 CPM"}]}, {"smiles": "CO[C@H]1/C=C/O[C@@]2(C)Oc3c(C)c(O)c4c(O)c(c(/C=N/N5CCN(C)CC5)c(O)c4c3C2=O)NC(=O)/C(C)=C\\C=C\\[C@H](C)[C@H](O)[C@@H](C)[C@@H](O)[C@@H](C)[C@H](OC(C)=O)[C@@H]1C", "note": "[rifampin]", "values": [{"measurement": "CPM A (label incorporated into transcript)", "setting": "[2]", "result": "717.00 CPM and 578.50 CPM and 452.50 CPM and 605.50 CPM"}]}]}
